Data from patent US7947257B2 (Archimedes Development Limited, priority 2003, dated 2011).

Experiment: Pharmacokinetic performance of intranasal granisetron formulations in sheep (plasma granisetron by HPLC)
Format: in vivo
Conditions: in words
Method: A group of five female sheep was used, each weighing around 35 kg. The formulations were administered to a randomized cross-over design. […] This dose was provided by administering 0.4 ml of each formulation via a spray device with the dose volume being divided equally between both nostrils.
Blood samples were collected over a 360 minute period following dosing and plasma separated. […] Pharmacokinetic parameters were calculated from the plasma data.

Question: With `CN1C2CCCC1CC(NC(=O)c1nn(C)c3ccccc13)C2` (stereo not shown) [Granisetron, 1-methyl-N-(9-methyl-9-azabicyclo[3.3.1]non-3-yl)-1H-indazole-3-carboxamide] as the compound, how does the “absorption by the intranasal route” value read?
Answer: The value was “well absorbed”.
